Counter-ions that a name gives are not always drawn. Like-named read-outs stand apart in the source and are kept apart here.
Key:
[1] = biological target: Recombinant human MALT-1 (amino acids 340-824) (Homo sapiens (Human), UniProt Q9UDY8); experiment: MALT-1 inhibition assay (fluorogenic substrate Ac-LRSR-Rh110-DP); assay type: biochemical; conditions: recombinant human MALT-1, substrate Ac-LRSR-Rh110-DP
In short: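 MALT-1 at 3 nM final was reacted with 10 μM Ac-LRSR-Rh110-DP, with substrate addition starting the reaction. Incubation ran 60 minutes at 25° C in the dark. Percent inhibition from fluorescence across doses was fitted to a 4-parameter logistic to give IC50.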

[2] = test system: IL-2 secretion by human effector memory T cells (TEM); experiment: Effector memory T cells IL-2 release assay; assay type: cell-based; conditions: human CD4+ effector memory T cells, CD3/CD28 bead stimulation, 24 h, read-out: CD4TC IL2 IC50
In short: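 Human CD4+ effector memory T cells from healthy-donor buffy coats were stimulated with anti-CD3/CD28 Dynabeads and exposed to 10 semi-log compound doses (0.1% DMSO) for 24 h at 37 °C. Supernatant IL-2 was measured by HTRF, and IC50 came from a 4-parameter logistic fit to maximal IL-2. Viability was checked by flow cytometry.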

Sequence of Recombinant human MALT-1 (amino acids 340-824) (Q9UDY8 340-824): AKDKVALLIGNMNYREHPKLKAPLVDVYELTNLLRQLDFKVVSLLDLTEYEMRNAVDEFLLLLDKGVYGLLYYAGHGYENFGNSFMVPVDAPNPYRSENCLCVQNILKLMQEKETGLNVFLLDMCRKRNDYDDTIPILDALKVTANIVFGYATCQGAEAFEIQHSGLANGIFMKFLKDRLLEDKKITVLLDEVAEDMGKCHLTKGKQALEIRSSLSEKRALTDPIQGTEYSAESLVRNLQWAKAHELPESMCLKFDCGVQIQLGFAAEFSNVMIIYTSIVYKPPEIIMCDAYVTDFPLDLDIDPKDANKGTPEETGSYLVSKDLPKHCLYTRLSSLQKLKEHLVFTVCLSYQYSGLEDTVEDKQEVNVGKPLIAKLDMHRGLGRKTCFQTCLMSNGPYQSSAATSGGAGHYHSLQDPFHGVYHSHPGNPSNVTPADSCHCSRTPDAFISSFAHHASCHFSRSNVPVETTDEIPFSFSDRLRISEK

Row | IC50 [1] [nM] | IC50 ([2]; T-cell) [nM] | SMILES | IC50 [2] [nM]
1 | 60 | 105 | CN(C(=O)[C@H]1C[C@H]([S@+](C)(=N)[O-])C1)[C@@H](c1ccc(N2CCCc3c2cnc2cc(Cl)nn32)cc1)C(F)(F)F [CPD0073226, (1R,3s)-N-[(1S)-1-(4-{4-chloro-2,3,7,10-tetraazatricyclo[7.4.0.0^2,6]trideca-1(9),3,5,7-tetraen-10-yl}phenyl)-2,2,2-trifluoroethyl]-3-[(S)-imino(methyl)oxo-λ^6-sulfanyl]-N-methylcyclobutane-1-carboxamide] | –
2 | 91 | 142 | CN(C(=O)CC1CCS(=O)(=O)CC1)[C@@H](c1ccc(N2CCCc3c2cnc2cc(Cl)nn32)cc1)C(F)(F)F [CPD0073088] | –
3 | 95 | 147 | CN(C(=O)C1C2CS(=O)(=O)CC21)[C@@H](c1ccc(N2CCCc3c2cnc2cc(Cl)nn32)cc1)C(F)(F)F (stereo partly drawn) [CPD0072801, N-[(1S)-1-(4-{4-chloro-2,3,7,10-tetraazatricyclo[7.4.0.0^2,6]trideca-1(9),3,5,7-tetraen-10-yl}phenyl)-2,2,2-trifluoroethyl]-N-methyl-3,3-dioxo-3λ^6-thiabicyclo[3.1.0]hexane-6-carboxamide] | –
4 | 168 | 255 | CN(C(=O)N1CCOCC1)[C@@H](c1ccc(N2CCCc3c2cnc2cc(Cl)nn32)cc1)C(F)(F)F [CPD0073084, N-[(1S)-1-(4-{4-chloro-2,3,7,10-tetraazatricyclo[7.4.0.0^2,6]trideca-1(9),3,5,7-tetraen-10-yl}phenyl)-2,2,2-trifluoroethyl]-N-methylmorpholine-4-carboxamide] | –
5 | 169 | 143 | CN(C(=O)C1CCOC1)[C@@H](c1ccc(N2CCCc3c2cnc2cc(Cl)nn32)cc1)C(F)(F)F (stereo partly drawn) [CPD0021568, N-[(1S)-1-(4-{4-chloro-2,3,7,10-tetraazatricyclo[7.4.0.0^2,6]trideca-1(9),3,5,7-tetraen-10-yl}phenyl)-2,2,2-trifluoroethyl]-N-methyloxolane-3-carboxamide] | –
6 | 57 | 149 | CN(C(=O)[C@@H]1CCN(C(=O)CO)C1)[C@@H](c1ccc(N2CCCc3c2cnc2cc(Cl)nn32)cc1)C(F)(F)F (relative stereo) [CPD0073976, (3 rel-R)—N-[(1S)-1-(4-{4-chloro-2,3,7,10-tetraazatricyclo[7.4.0.0^2,6]trideca-1(9),3,5,7-tetraen-10-yl}phenyl)-2,2,2-trifluoroethyl]-1-(2-hydroxyacetyl)-N-methylpyrrolidine-3-carboxamide] | –
7 | 134 | 175 | CN(C(=O)[C@H]1CCS(=O)(=O)C1)[C@@H](c1ccc(N2CCCc3c2cnc2cc(Cl)nn32)cc1)C(F)(F)F (relative stereo) [CPD0022134, (3rel-R)-N-[(1S)-1-(4-{4-chloro-2,3,7,10-tetraazatricyclo[7.4.0.0^2,6]trideca-1(9),3,5,7-tetraen-10-yl}phenyl)-2,2,2-trifluoroethyl]-N-methyl-1,1-dioxo-1λ^6-thiolane-3-carboxamide] | –
8 | 163 | 253 | CN(C(=O)CN1CCS(=O)(=O)CC1)[C@@H](c1ccc(N2CCCc3c2cnc2cc(Cl)nn32)cc1)C(F)(F)F [CPD0073572, N-[(1S)-1-(4-{4-chloro-2,3,7,10-tetraazatricyclo[7.4.0.0^2,6]trideca-1(9),3,5,7-tetraen-10-yl}phenyl)-2,2,2-trifluoroethyl]-2-(1,1-dioxo-1λ^6-thiomorpholin-4-yl)-N-methylacetamide] | –
9 | 73 | 127 | CN(C(=O)[C@H]1CC[S@+]([O-])CC1)[C@@H](c1ccc(N2CCCc3c2cnc2cc(Cl)nn32)cc1)C(F)(F)F (relative stereo) [CPD0022137, (1rel-r,4rel-r)-N-[(1S)-1-(4-{4-chloro-2,3,7,10-tetraazatricyclo[7.4.0.0^2,6]trideca-1(9),3,5,7-tetraen-10-yl}phenyl)-2,2,2-trifluoroethyl]-N-methyl-1-oxo-1λ^4-thiane-4-carboxamide] | –
10 | 29 | 92 | C[C@@H]1CCN(c2ccc([C@H](N(C)C(=O)[C@@H]3CCC(=O)NC3)C(F)(F)F)cc2)c2cnc3cc(Cl)nn3c21 (relative stereo) [CPD0074561, (3rel-R)-N-[(1S)-1-[4-[(13rel-R)-4-chloro-13-methyl-2,3,7,10-tetrazatricyclo[7.4.0.0^2,6]trideca-1(9),3,5,7-tetraen-10-yl]phenyl]-2,2,2-trifluoro-ethyl]-N-methyl-6-oxo-piperidine-3-carboxamide] | –
11 | 58 | 42 | CN(C(=O)[C@H]1CC[S@@+]([O-])CC1)[C@@H](c1ccc(N2CCC3(CC3)c3c2cnc2cc(Cl)nn32)cc1)C(F)(F)F (relative stereo) [CPD0072778, (1rel-s,4rel-s)-N-[(1S)-1-(4-{4′-chloro-2′,3′,7′,10′-tetraazaspiro[cyclopropane-1,13′-tricyclo[7.4.0.0^2,6]tridecane]-1′(9′),3′,5′,7′-tetraen-10′-yl}phenyl)-2,2,2-trifluoroethyl]-N-methyl-1-oxo-1λ^4-thiane-4-carboxamide] | –
12 | 47 | 140 | CN(C(=O)[C@H]1CCC(=O)NC1)[C@@H](c1ccc(N2CCCc3c2cnc2cc(Cl)nn32)cc1)C(F)(F)F (relative stereo) [CPD0073569, (3rel-S)-N-[(1S)-1-(4-{4-chloro-2,3,7,10-tetraazatricyclo[7.4.0.0^2,6]trideca-1(9),3,5,7-tetraen-10-yl}phenyl)-2,2,2-trifluoroethyl]-N-methyl-6-oxopiperidine-3-carboxamide] | –
13 | 432 | 5780 | CN(C(=O)C1CCS(=O)(=O)CC1)[C@@H](c1ccc(N2CCCc3c2cnc2cc(Cl)nn32)cc1)C(F)F [CPD0073041, N-[(1S)-1-(4-{4-chloro-2,3,7,10-tetraazatricyclo[7.4.0.0^2,6]trideca-1(9),3,5,7-tetraen-10-yl}phenyl)-2,2-difluoroethyl]-N-methyl-1,1-dioxo-1λ^6-thiane-4-carboxamide] | –
14 | 68 | 210 | CNCC(=O)N1CC[C@@H](C(=O)N(C)[C@@H](c2ccc(N3CCCc4c3cnc3cc(Cl)nn43)cc2)C(F)(F)F)C1 (relative stereo) [CPD0075881, (3 rel-S)—N-[(1S)-1-[4-(4-chloro-2,3,7,10-tetrazatricyclo[7.4.0.0^2,6]trideca-1(9),3,5,7-tetraen-10-yl)phenyl]-2,2,2-trifluoro-ethyl]-N-methyl-1-[2-(methylamino)acetyl]pyrrolidine-3-carboxamide hydrochloride] | –
15 | 127 | 175 | CC(=O)N1CCC[C@@H](C(=O)N(C)[C@@H](c2ccc(N3CCCc4c3cnc3cc(Cl)nn43)cc2)C(F)(F)F)C1 (relative stereo) [CPD0073499, (3rel-R)-1-acetyl-N-[(1S)-1-(4-{4-chloro-2,3,7,10-tetraazatricyclo[7.4.0.0^2,6]trideca-1(9),3,5,7-tetraen-10-yl}phenyl)-2,2,2-trifluoroethyl]-N-methylpiperidine-3-carboxamide] | –
16 | 63 | 732 | CN(C(=O)C1CC(C(=O)O)C1)[C@@H](c1ccc(N2CCCc3c2cnc2cc(Cl)nn32)cc1)C(F)(F)F (stereo partly drawn) [CPD0072461] | –
17 | 95 | 230 | COCC(=O)N1CC[C@H](C(=O)N(C)[C@@H](c2ccc(N3CCCc4c3cnc3cc(Cl)nn43)cc2)C(F)(F)F)C1 (relative stereo) [CPD0075874, (3rel-R)-N-[(1S)-1-[4-(4-chloro-2,3,7,10-tetrazatricyclo[7.4.0.0^2,6]trideca-1(9),3,5,7-tetraen-10-yl)phenyl]-2,2,2-trifluoro-ethyl]-1-(2-methoxyacetyl)-N-methyl-pyrrolidine-3-carboxamide] | –
18 | 76 | 241 | CN(C(=O)[C@@H]1CCC(=O)N1)[C@@H](c1ccc(N2CCCc3c2cnc2cc(Cl)nn32)cc1)C(F)(F)F (relative stereo) [CPD0073566, (2rel-S)-N-[(1S)-1-(4-{4-chloro-2,3,7,10-tetraazatricyclo[7.4.0.0^2,6]trideca-1(9),3,5,7-tetraen-10-yl}phenyl)-2,2,2-trifluoroethyl]-N-methyl-5-oxopyrrolidine-2-carboxamide] | –
19 | 62 | 36 | CN(C(=O)[C@H]1CC[S@+]([O-])CC1)[C@@H](c1ccc(N2CCC(C)(C)c3c2cnc2cc(Cl)nn32)cc1)C(F)(F)F (relative stereo) [CPD0072777, (1rel-r,4rel-r)-N-[(1S)-1-(4-{4-chloro-13,13-dimethyl-2,3,7,10-tetraazatricyclo[7.4.0.0^2,6]trideca-1(9),3,5,7-tetraen-10-yl}phenyl)-2,2,2-trifluoroethyl]-N-methyl-1-oxo-1λ^4-thiane-4-carboxamide] | –
20 | 35 | 101 | C[C@@H]1CCN(c2ccc([C@H](N(C)C(=O)[C@H]3CC[S@](=N)(=O)CC3)C(F)(F)F)cc2)c2cnc3cc(F)nn3c21 (relative stereo) [CPD0074555, (1rel s, 4rel s)1-imino-N-methyl-1-oxo-N-[(1S)-2,2,2-trifluoro-1-[4-[(13 rel R)-4-fluoro-13-methyl-2,3,7,10-tetrazatricyclo[7.4.0.0^2,6]trideca-1(9),3,5,7-tetraen-10-yl]phenyl]ethyl]thiane-4-carboxamide] | –

Row | SMILES | IC50 [1] [nM] | IC50 ([2]; T-cell) [nM] | IC50 [2] [nM]
21 | COC(C)c1c(Nc2ccc([C@H](N(C)C(=O)C3CCS(=O)(=O)CC3)C(F)(F)F)cn2)cnc2ccc(Cl)nc12 (stereo in doubt) [CPD0019501, N-[(1S)-1-[6-({6-chloro-4-[(1 rel S)-1-methoxyethyl]-1,5-naphthyridin-3-yl}amino)pyridin-3-yl]-2,2,2-trifluoroethyl]-N-methyl-1,1-dioxo-1λ^6-thiane-4-carboxamide] | 348 | – | 380

Source: US20250051327A1, “MALT-1 MODULATORS” (EXSCIENTIA AI LIMITED, priority 2020, published 2025)
